Test results taken from PMC12136037, “Type II kinase inhibitors that target Parkinson’s disease–associated LRRK2” (Science Advances, 2025).
Values joined by “and” are separate entries in the source; they are usually repeats but may differ in a detail not shown here. Equal entries are not always repeated.

Target: T1, LRRK2^RCKW (Homo sapiens, UniProt Q5S007)
T1 construct: LRRK2 R1327 to E2527; His6-Z-tag (TEV cleavable) (N, cleaved yes); host or cells: Sf9 insect cells (baculovirus)
T1 sequence (Q5S007 1327-2527): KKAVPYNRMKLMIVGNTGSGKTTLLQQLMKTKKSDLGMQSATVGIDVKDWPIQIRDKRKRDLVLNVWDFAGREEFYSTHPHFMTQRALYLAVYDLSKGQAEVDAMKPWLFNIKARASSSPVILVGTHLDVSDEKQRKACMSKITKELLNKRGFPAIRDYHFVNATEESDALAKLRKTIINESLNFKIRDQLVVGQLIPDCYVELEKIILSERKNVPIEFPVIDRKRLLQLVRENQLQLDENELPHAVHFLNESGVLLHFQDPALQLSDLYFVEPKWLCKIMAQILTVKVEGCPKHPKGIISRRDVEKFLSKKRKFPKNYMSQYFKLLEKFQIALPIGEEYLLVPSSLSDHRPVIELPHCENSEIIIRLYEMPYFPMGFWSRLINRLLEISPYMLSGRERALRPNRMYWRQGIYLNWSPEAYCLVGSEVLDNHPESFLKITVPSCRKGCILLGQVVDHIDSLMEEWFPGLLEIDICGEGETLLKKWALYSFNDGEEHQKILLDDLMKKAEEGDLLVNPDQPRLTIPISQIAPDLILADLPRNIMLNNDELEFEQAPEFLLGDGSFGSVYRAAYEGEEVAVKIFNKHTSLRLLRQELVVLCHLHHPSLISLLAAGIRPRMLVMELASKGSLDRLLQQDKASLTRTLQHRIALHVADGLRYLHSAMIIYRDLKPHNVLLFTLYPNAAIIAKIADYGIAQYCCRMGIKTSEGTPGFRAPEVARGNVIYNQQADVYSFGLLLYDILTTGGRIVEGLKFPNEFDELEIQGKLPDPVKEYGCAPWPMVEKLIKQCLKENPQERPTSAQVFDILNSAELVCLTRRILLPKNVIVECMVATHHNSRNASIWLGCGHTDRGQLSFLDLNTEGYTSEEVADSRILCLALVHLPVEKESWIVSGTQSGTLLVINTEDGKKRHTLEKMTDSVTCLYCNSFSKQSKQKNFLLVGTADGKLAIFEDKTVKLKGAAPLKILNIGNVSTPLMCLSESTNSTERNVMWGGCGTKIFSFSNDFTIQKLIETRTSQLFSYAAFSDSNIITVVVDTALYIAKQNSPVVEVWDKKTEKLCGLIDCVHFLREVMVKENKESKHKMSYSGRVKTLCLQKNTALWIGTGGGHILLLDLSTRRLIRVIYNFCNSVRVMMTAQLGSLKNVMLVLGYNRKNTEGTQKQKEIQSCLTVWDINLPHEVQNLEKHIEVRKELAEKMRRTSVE
Experiment: Single-molecule in vitro kinesin motility assay (TIRF) in the presence of LRRK2^RCKW
Type: biochemical
Conditions: for Raw data per microtubule (Figure 6c/6e, kinesin motility): individual microtubule values; for Mean each experiment (Figure 6c/6e raw data, kinesin motility): mean of each independent experiment; for rescue of kinesin motility in the presence of LRRK2^RCKW: MLi-2 5 μM, Ponatinib, RN277, RN341 10 μM
Procedure: The excitation and emission paths were filtered using appropriate single band-pass filter cubes (Chroma). […] Illumination and image acquisition was controlled by NIS Elements Advanced Research software (Nikon; www.microscope.healthcare.nikon.com/products/software/nis-elements/nis-elements-advanced-research, RRID:SCR_014329).
Single-molecule total internal reflection fluorescence (TIRF) motility experiments were performed in flow chambers using the microscopy setup described above. Flow chambers were made by adhering 1^1/2 thickness cover glass (Corning) to a SuperFrost Plus microscope slide (Electron Microscopy Sciences) with double sided tape. Before flow chamber assembly, cover glass was washed in 1 M HCl at 60°C for 1 hour and sonicated in 100% ethanol for 10 min to reduce nonspecific binding. […] In brief, flow chambers were functionalized by incubation with biotin-BSA (1 mg/ml; Sigma-Aldrich) for 3 min, followed by streptavidin (0.5 mg/ml) for a further 3 min. Taxol-stabilized microtubules were diluted 1:100 in motility assay buffer [30 mM Hepes (pH 7.4), 50 mM potassium acetate, 2 mM magnesium acetate, 1 mM EGTA, 10% glycerol, 1 mM DTT, and 20 μM Taxol] and incubated with the flow chamber for 3 min. Following incubation, the flow chambers with adhered microtubules were washed three times with LRRK2 buffer [20 mM Hepes (pH 7.4), 80 mM NaCl, 0.5 mM TCEP, 5% glycerol, 2.5 mM MgCl2, and 20 μM GDP] before incubation for 5 min with either LRRK2 buffer with DMSO or specified kinase inhibitors (0 nM LRRK2^RCKW) or LRRK2 buffer containing LRRK2^RCKW and DMSO or kinase inhibitors as indicated. In all cases, DMSO or the indicated kinase inhibitors were incubated with LRRK2 buffer in the presence or absence of LRRK2^RCKW for 10 min before addition and incubation within the flow chambers.
Data were blinded before analysis. Kymographs were generated from motility movies and quantified for percent motility using ImageJ V.2.14.0 as previously described ([22], [63]). Processive, diffusive, and nonmotile events were manually annotated for calculation of the percentage of processive events per microtubule. […] Single-molecule movements with multiple behaviors were counted as multiple events. For percentage motility per microtubule measurements, processive events were divided by total events (nonmotile, diffuse, and processive) per kymograph.
For statistical analysis, brightness and contrast were adjusted in ImageJ for all motility movies and kymographs. Statistical analyses were performed in GraphPad Prism 10 (www.graphpad.com/, RRID:SCR_002798). Specific statistical analysis descriptors, n values, and P values can be found in the corresponding figure legends. All TIRF experiments were analyzed from three independent technical replicates.

| Compound | Raw data per microtubule (Figure 6c/6e, kinesin motility) (0nM RCKW, listed as RN277) | Mean each experiment (Figure 6c/6e raw data, kinesin motility) (0nM RCKW, listed as RN277) | Raw data per microtubule (Figure 6c/6e, kinesin motility) (100nM RCKW, listed as RN277) | Mean each experiment (Figure 6c/6e raw data, kinesin motility) (100nM RCKW, listed as RN277) | rescue of kinesin motility in the presence of LRRK2^RCKW | Raw data per microtubule (Figure 6c/6e, kinesin motility) (0nM RCKW, listed as RN341) | Mean each experiment (Figure 6c/6e raw data, kinesin motility) (0nM RCKW, listed as RN341) | Raw data per microtubule (Figure 6c/6e, kinesin motility) (100nM RCKW, listed as RN341) | Mean each experiment (Figure 6c/6e raw data, kinesin motility) (100nM RCKW, listed as RN341) | Raw data per microtubule (Figure 6c/6e, kinesin motility) (0nM RCKW) | Mean each experiment (Figure 6c/6e raw data, kinesin motility) (0nM RCKW) | Raw data per microtubule (Figure 6c/6e, kinesin motility) (100nM RCKW) | Mean each experiment (Figure 6c/6e raw data, kinesin motility) (100nM RCKW) |
| --- | --- | --- | --- | --- | --- | --- | --- | --- | --- | --- | --- | --- | --- |
| Cc1ccc(-n2nc(C(C)(C)C)cc2NC(=O)Nc2cccc(-c3c[nH]c4nc(Cl)nc(N5CCOCC5)c34)c2)cc1 [Compound 30] | 85.8824 and 78.125 and 82.8829 and 82.3529 and 90 and 85.1064 | 80.5039 and 86.1765 and 85.4944 | 94.0299 and 83.3333 and 78.0142 and 83.1325 and 78.4314 and 95.5556 | 80.6738 and 80.7819 and 94.7927 | rescued kinesin motility |  |  |  |  |  |  |  |  |
| CCSc1nc(NC)c2c(-c3cccc(NC(=O)Nc4cc(C(C)(C)C)nn4-c4ccc(C)cc4)c3)c[nH]c2n1 [Compound 32] |  |  |  |  | rescued kinesin motility | 77.4648 and 83.4483 and 76.4045 and 86.4865 and 75.9259 and 86.2385 | 79.9264 and 81.2062 and 81.8517 | 76.0563 and 76.9912 and 82.5688 and 91.0891 and 75.8621 and 85.9155 | 79.78 and 83.4756 and 80.9859 |  |  |  |  |
| Cc1ccc(C(=O)Nc2ccc(CN3CCN(C)CC3)c(C(F)(F)F)c2)cc1C#Cc1cnc2cccnn12 [Ponatinib, reference compound] |  |  |  |  | rescued kinesin motility |  |  |  |  | 83.3333 and 79.7203 and 85.1562 and 84.9462 and 85.9649 and 81.3725 | 82.4383 and 85.4556 and 82.3529 | 85.8491 and 82.7225 and 82.5758 and 84.8485 and 75 and 80.5556 | 82.6491 and 79.9242 and 83.2023 |
